Test results published in US7973034B2, “Amide, aryl sulfonamide, aryl urea, and α,β-diketone derived carboxylesterase inhibitors, and their methods of use” (priority 2003, dated 2011).
Like-named read-outs stand apart in the source and are kept apart here.

Columns and labels:
[1] = human plasma in vitro; cited from earlier work
[2] = rat plasma, within 1 hour of incubation; cited from earlier work
[3] = mouse plasma, within 1 hour of incubation; cited from earlier work
[4] = system: carboxylesterases; assay: General carboxylesterase inhibition; assay type: biochemical
Method: Carboxylesterase (CE) inhibition was determined by a spectroscopic assay using o-nitrophenyl acetate (o-NPA) as a substrate. Recombinant CEs produced from expression in Spodoptera frugiperda Sf9 insect cells via baculovirus were purified from serum-free culture media for the enzyme inhibition studies. Enzymes were incubated in 200 μl of 50 mM Hepes (pH 7.4) containing 3 mM o-NPA. Conversion of the o-NPA to nitrophenol was monitored by measuring the change in the absorbance at 420 nm. Absorbance readings were taken every 15 seconds for 2 minutes, and data transferred to a computer data spreadsheet. […] The final DMSO concentration was always 1% or less. […] The above procedure was then repeated using the same assay, with inhibitor concentrations ranging from 1 nM to 100 μM. Results were then transferred to Prism software (GraphPad Software, Inc., San Diego, Calif.) and Ki values determined using sigmoidal curve fits of the data. Routinely, all analyses were performed in duplicate, and Ki values determined using at least 8 inhibitor concentrations.

[5] = system: chicken liver carboxylesterase; conditions: cited from earlier work
[6] = molecular target: T1, human small intestine carboxylesterase (hiCE) (Homo sapiens, UniProt O00748); assay: biochemical; assay type: biochemical; conditions: o-NPA as substrate; for Ki: Table 5, read-out: Ki hiCE; for Ki (hCE1)/Ki (hiCE): selectivity ratio
T1 sequence (O00748 27-559): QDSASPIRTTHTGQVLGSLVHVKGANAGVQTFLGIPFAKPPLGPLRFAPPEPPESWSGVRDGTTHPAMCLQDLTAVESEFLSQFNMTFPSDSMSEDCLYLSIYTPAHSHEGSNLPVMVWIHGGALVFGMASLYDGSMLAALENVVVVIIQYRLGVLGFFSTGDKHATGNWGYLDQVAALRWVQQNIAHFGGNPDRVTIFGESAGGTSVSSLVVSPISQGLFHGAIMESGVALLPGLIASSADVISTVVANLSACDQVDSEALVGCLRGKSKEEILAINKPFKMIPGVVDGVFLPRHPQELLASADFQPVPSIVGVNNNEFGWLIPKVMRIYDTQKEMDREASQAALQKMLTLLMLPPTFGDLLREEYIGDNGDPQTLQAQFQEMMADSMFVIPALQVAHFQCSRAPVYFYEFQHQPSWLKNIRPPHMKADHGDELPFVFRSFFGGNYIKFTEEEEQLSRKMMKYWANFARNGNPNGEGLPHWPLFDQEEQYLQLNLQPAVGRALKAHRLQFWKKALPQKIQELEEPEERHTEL

[7] = molecular target: T2, human liver carboxylesterase (hCE1) (Homo sapiens, UniProt P23141); assay: biochemical; assay type: biochemical; conditions: o-NPA as substrate; Table 5; read-out: Ki hCE1
T2 sequence (P23141 18-567): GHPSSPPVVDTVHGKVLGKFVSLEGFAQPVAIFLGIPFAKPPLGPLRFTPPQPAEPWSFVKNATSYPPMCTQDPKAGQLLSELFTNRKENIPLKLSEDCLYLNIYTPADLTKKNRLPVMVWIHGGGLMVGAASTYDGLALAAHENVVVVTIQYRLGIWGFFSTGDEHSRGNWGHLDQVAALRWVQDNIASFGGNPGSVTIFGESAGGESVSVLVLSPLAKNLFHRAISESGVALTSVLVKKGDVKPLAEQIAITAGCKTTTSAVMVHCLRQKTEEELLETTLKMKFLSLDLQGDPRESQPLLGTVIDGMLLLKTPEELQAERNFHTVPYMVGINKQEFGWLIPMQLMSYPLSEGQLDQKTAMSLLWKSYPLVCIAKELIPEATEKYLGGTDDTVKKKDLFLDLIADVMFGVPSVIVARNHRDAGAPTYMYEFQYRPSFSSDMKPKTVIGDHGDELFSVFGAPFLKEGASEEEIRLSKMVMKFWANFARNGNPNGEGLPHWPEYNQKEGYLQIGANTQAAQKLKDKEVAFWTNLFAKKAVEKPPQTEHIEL

[8] = molecular target: T3, rabbit liver carboxylesterase (rCE) (Oryctolagus cuniculus, UniProt P12337); assay: biochemical; assay type: biochemical; conditions: o-NPA as substrate; Table 5; read-out: Ki rCE
T3 sequence (P12337 19-565): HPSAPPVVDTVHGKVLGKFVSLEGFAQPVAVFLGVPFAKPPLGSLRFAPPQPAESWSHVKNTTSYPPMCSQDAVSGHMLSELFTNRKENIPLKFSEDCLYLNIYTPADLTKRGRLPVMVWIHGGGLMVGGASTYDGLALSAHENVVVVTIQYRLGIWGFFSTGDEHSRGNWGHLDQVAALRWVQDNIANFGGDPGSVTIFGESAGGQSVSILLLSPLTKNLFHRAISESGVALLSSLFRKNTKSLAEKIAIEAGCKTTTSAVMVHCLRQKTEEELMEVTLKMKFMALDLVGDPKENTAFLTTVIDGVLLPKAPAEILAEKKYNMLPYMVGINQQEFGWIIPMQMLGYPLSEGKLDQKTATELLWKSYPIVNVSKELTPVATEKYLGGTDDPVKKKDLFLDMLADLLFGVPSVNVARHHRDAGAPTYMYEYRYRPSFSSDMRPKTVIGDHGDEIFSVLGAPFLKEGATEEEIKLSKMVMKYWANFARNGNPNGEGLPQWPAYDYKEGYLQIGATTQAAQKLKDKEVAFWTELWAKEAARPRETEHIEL

[9] = molecular target: T4, human acetylcholinesterase (hAcChE) (Homo sapiens, UniProt P22303); assay: biochemical; assay type: biochemical; conditions: acetylthiocholine substrate; Table 5; read-out: Ki hAcChE
T4 construct: purchased Sigma Biochemicals (St. Louis, Mo.)
T4 sequence (P22303 32-614): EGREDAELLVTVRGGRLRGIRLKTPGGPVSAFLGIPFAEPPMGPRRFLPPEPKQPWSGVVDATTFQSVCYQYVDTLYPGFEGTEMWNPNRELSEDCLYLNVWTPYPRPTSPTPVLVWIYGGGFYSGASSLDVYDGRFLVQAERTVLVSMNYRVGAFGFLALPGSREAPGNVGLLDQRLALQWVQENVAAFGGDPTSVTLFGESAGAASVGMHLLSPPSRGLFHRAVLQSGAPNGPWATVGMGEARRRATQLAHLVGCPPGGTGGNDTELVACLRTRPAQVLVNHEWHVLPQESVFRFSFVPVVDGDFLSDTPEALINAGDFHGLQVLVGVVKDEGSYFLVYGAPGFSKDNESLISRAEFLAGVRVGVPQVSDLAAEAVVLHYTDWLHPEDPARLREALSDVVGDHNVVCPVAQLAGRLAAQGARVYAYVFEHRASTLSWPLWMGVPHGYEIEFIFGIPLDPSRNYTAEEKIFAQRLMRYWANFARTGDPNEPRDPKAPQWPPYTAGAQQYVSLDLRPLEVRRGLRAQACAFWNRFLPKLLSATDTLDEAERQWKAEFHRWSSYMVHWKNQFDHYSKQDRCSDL
Method: Data was transferred to GraphPad Prism software, and Ki values were calculated as described in the Example above.

[10] = molecular target: human butyrylcholinesterase (hBuChE) (Homo sapiens, UniProt P06276); assay: biochemical
human butyrylcholinesterase (hBuChE), sequence (P06276 29-602): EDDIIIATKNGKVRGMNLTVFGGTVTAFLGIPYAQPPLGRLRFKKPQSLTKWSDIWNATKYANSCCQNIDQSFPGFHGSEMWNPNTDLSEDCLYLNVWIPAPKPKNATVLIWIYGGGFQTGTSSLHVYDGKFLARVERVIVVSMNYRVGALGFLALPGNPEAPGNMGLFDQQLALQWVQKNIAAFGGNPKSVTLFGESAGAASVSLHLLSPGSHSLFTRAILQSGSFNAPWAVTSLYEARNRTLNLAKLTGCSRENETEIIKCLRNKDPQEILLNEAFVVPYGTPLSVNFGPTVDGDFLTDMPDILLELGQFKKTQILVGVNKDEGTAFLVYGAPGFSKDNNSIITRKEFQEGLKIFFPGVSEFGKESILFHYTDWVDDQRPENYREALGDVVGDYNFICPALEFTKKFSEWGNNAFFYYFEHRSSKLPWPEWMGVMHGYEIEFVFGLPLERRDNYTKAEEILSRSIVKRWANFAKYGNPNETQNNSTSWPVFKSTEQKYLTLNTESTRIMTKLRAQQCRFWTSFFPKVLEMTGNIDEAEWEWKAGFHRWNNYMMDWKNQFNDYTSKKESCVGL

[11] = molecular target: T5, hiCE (Homo sapiens, UniProt O00748); assay: Inhibition of hiCE-mediated activation of CPT-11 (SN-38 by HPLC); assay type: biochemical
T5 sequence (O00748 27-559): T1 sequence (O00748 27-559)
Method: Since the sulphonamide compounds identified herein are competitive inhibitors of hiCE, their activity is dependant upon the substrate used. To access the ability of these compounds to inhibit the hiCE-mediated activation of CPT-11, Ki values were determined using CPT-11 as the substrate.
CPT-11 concentrations were fixed at […], and inhibitor concentrations varied from 1 nM to 10 μM. Following incubation for an hour at 37° C., the levels of SN-38 in the reaction mixture was determined by High Performance Liquid Chromatography (HPLC).

[12] = molecular target: T6, human intestinal carboxylesterase in U373MGhiCE cells (Homo sapiens, UniProt O00748); assay: Inhibition of intracellular carboxylesterase in U373MGhiCE cells; assay type: cell-based
T6 construct: expressed in transfected cells; host or cells: U373MG human glioma cells (U373MGhiCE)
T6 sequence (O00748 27-559): T1 sequence (O00748 27-559)
Method: To monitor the ability of the compounds to cross the cell membrane and inhibit carboxylesterase activity intracellularly, an assay using human tumor cells expressing hiCE was devised. U373MGhiCE (a human glioma cell line transfected with a plasmid expressing hiCE) were plated in T25 flasks and allowed to grow to confluency (approximately 2-5×10^5 cells). Inhibitors were then added at a final concentration of […], and incubation allowed to continue for 1 hour. At this time, the cells were washed extensively with 5 ml of complete media and 2×5 ml of Hanks balanced salt solution, and cell extracts were prepared. Carboxylesterase activity was then determined using o-NPA as a substrate.
Table 8 sets forth the level of intracellular enzyme inhibition following incubation of human glioblastoma tumor cells expressing human intestinal carboxylesterase with 10 μM of each compound identified in Table 3.

[13] = CPT-11 as substrate (100 μm), 1 hour at 37° C., read-out: Ki hiCE

SMILES	level of activation of CPT-11 by plasma [1]	drug converted to SN-38 [2]	drug converted to SN-38 [3]	found to be general carboxylesterase inhibitors [4]	inhibition of chicken liver carboxylesterase [5]	Ki [6] [µM]	Ki (hCE1)/Ki (hiCE) [6]	Ki [7] [µM]	Ki [8] [µM]	Ki [9] [µM]	Ki [10] [µM]	Ki [11, 13] [µM]	inhibition at 10 µM [12] [%]	Ki [11] [µM]
CCc1c2c(nc3ccc(OC(=O)N4CCC(N5CCCCC5)CC4)cc13)-c1cc3c(c(=O)n1C2)COC(=O)[C@]3(O)CC [CPT-11, 7-ethyl-10-[4-(1-piperidino)-1-piperidino]carbonyloxycamptothecin]	very low	greater than 50%	greater than 50%											
O=C(C(=O)c1ccccc1)c1ccccc1 [Compound 2, Diphenylethane-1,2-dione]				general carboxylesterase inhibitors	inhibition									
O=S(=O)(Nc1ccc(NS(=O)(=O)c2ccc(Cl)cc2)c2ccccc12)c1ccc(Cl)cc1 [Compound 47, 4-chloro-N-(4-{[(4-chlorophenyl)sulfonyl]amino}-1-naphthyl)benzenesulfonamide]						0.194 ± 0.023	>500	> 100	> 100	> 100	> 100	> 100	9.2	
Cc1cc(C)c(S(=O)(=O)Nc2ccccc2)cc1S(=O)(=O)Nc1ccccc1 [Compound 48, 4,6-dimethyl-N,N′-diphenylbenzene-1,3-disulfonamide]						0.218 ± 0.045	>450	> 100	> 100	> 100	> 100	> 100	8.9	
Cc1cc(NS(=O)(=O)c2ccccc2)ccc1NS(=O)(=O)c1ccccc1 [Compound 49, N-{2-methyl-4-[(phenylsulfonyl)amino]phenyl}benzene sulfonamide]						0.365 ± 0.087	>250	> 100	3.23	> 100	> 100		7.6	0.238 ± 0.029
CS(=O)(=O)Nc1ccc(SSc2ccc(NS(C)(=O)=O)cc2)cc1 [Compound 50, N-[4-({4-[(methylsulfonyl)amino]phenyl}dithio)phenyl]methanesulfonamide]						0.767 ± 0.285	>125	> 100	0.739 ± 0.384	> 100	> 100	> 100	14.6	
O=S(=O)(Nc1ccc(NS(=O)(=O)c2ccccc2)cc1)c1ccccc1 [Compound 51, N-{4-[(phenylsulfonyl)amino]phenyl}benzene sulfonamide]						1.06	>90	> 100	1.55	> 100	> 100	0.892 ± 0.067	5.5	
CCOc1ccc(NS(=O)(=O)c2ccc(Cl)cc2)cc1 [Compound 52, 4-chloro-N-(4-ethoxyphenyl)benzenesulfonamide]						1.31	>75	> 100	2	> 100	> 100		9.6	3.22
O=S(=O)(Nc1c(F)c(F)c(NS(=O)(=O)c2ccc(Cl)cc2)c(F)c1F)c1ccc(Cl)cc1 [Compound 59]						0.0415 ± 0.0065	>2,400	> 100	0.522 ± 0.144	> 100	> 100		8.3	0.11 ± 0.023
